Data reported in US20040023945A1, “CYCLIC AMP-SPECIFIC PHOSPHODIESTERASE INHIBITORS” (ICOS Corporation, priority 1999, published 2004).
Like-named read-outs stand apart in the source and are kept apart here. One block for each molecule: values may come before it.

Tests used:
Balb/c mice = test: Mouse locomotor activity assay (decrease in spontaneous mobility); conditions: in vivo, ip
Experimental: The purpose of this study was to determine the efficacy of PDE4 inhibitors in vivo in an LPS mouse model together with a determination with respect to central nervous system (CNS) side-effects manifested by a decrease in spontaneous mobility.
The test animals were female Balb/c mice, having an average weight of about 20 g. The PDE4 inhibitors, formulated in 30% Cremophor® EL, were administered via intraperitoneal (i.p.) injections at doses of 0.1, 1.0, 10.0, and 100 mg/kg. Individual dose volumes (about 150 μL) were adjusted based on the body weights measured. One hour later, 5 mg/kg LPS in a final volume of 200 μL was injected via the tail vein to each animal. Ninety minutes following the LPS treatment, the animals were bled and serum samples were collected before being stored at −70° C. until assayed.
Movement of the X-Y plane, or rearing up on the hind legs, was quantified by counting the number of “light-beam” crosses per unit of time. A decrease in the number of activity events is directly proportional to the mobility or immobilization of the animal. The quantitative scoring correlated well with the subjective measurements described above.

PDE7 = molecular target: T1, PDE7 (Homo sapiens, UniProt Q13946); test: Inhibition of PDE7; format: biochemical
T1 construct: made in house; host or cells: Saccharomyces cerevisiae BJ2-54

PDE1A = molecular target: T2, PDE1A (Homo sapiens, UniProt P54750); test: Inhibition of PDE1A; format: biochemical
T2 construct: contained the complete open reading frame of PDE1A3; made in house; host or cells: baculovirus-infected Sf9 cells

PDE2 = molecular target: T3, PDE2 (Homo sapiens, UniProt O00408); test: Inhibition of PDE2; format: biochemical
T3 construct: made in house; host or cells: Saccharomyces cerevisiae strain YI34

PDE1C = molecular target: T4, PDE1C (Homo sapiens, UniProt Q14123); test: Inhibition of PDE1C; format: biochemical
T4 construct: contained the complete open reading frame of PDE1C3; made in house; host or cells: baculovirus-infected Sf9 cells

human recombinant PDE4B = molecular target: T5, human recombinant PDE4B (Homo sapiens, UniProt Q07343); test: Inhibition of human recombinant PDE4B; format: biochemical; conditions: read-out: IC50 vs. human recombinant PDE4B
T5 construct: made in house; host or cells: Saccharomyces cerevisiae strain YI23 harboring HDUN2.32

[1] = system: human peripheral blood lymphocytes; test: Lipopolysaccharide-stimulated TNFα release from human peripheral blood lymphocytes; format: cell-based; conditions: Homo sapiens, Lymphocyte, LPS-stimulated TNFα release from human PBL; read-out: PBL/TNFα EC50
In short: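 Lymphocytes were isolated by Histopaque from heparinized human blood and plated at 3×10^6 cells/mL. Test compound was added 15 min before LPS ([…]), and cells were incubated 20 h at 37 °C. TNFα in the supernatant was measured by ELISA, and EC50 was taken as 50% inhibition of total TNFα.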

PDE3A = molecular target: T6, PDE3A (Homo sapiens, UniProt Q14432); test: Inhibition of PDE3A; format: biochemical
T6 construct: contained the complete open reading frame of PDE3A; made in house; host or cells: baculovirus-infected Sf9 cells

recombinant human PDE4 = test: Inhibition of recombinant human PDE4 (cAMP hydrolysis); conditions: read-out: PDE4 IC50
ferret = test: Emetic modeling in the ferret following oral and intravenous dosing; format: in vivo, Mustela putorius furo
Experimental: This study was conducted to investigate the emetogenic properties of PDE4 inhibitors in vivo. The ferret previously has been established as a valuable tool for assessing emesis following exposure to test compounds. […] Therefore, lack of and/or decrease in emetic potential of test compounds in ferrets predicts a favorable nonemetic effect in humans. Emesis is a complex physiological response to noxious agents that can be intiated peripherally or centrally.
The test animals were adult, castrated, and descented male ferrets (species=Mustela putorius furo, Strain=Sable) ranging in weight from about 1 to 1.5 kg. The tests were performed in quadruplicate on animals that were naive to PDE4 inhibitors. The PDE4 inhibitors were formulated in 10% Polyoxyl-35 castor oil (CREMOPHOR® EL, available from BASF Corporation, Parsippany, N.J.) in phosphate buffered saline (PBS), and were administered via i.v. injections into an indwelling catheter surgically positioned in the right external jugular vein at a rate of 0.66 mL per kg body weight. PDE4 inhibitors for oral consumption were formulated in 30% CREMOPHOR® EL in PBS, and administered by intubating animals with a 16-gauge feeding needle into the stomach. The animals received the PDE4 inhibitors in a volume of 1.33 mL per kg body weight.
All animals were fasted for 8 to 12 hours prior to administration of PDE4 inhibitors. Following administration of a PDE4 inhibitor, emetic and behavioral responses were quantified for three hours post dosing. The total number of emetic responses and vomiting episodes were quantified during the observation interval. In addition, latency time to first emetic episode, duration of emesis episodes, and gross behavioral changes including ataxia, profuse and viscous salivation, mouth clawing, hyperventilation, backward walking, flattened body posture, hyperactivity, lip licking, and general appearance were recorded.
For comparative purposes, the emetogenic effect of Samples 66 and 69 were tested intravenously at 1.0, 2.5, 5.0, and 10 mg/kg and orally at 2.5, 10, 17, and 25 mg/kg.

PDE1B = molecular target: T7, PDE1B (Homo sapiens, UniProt Q01064); test: Inhibition of PDE1B; format: biochemical
T7 construct: made in house; host or cells: Saccharomyces cerevisiae BJ2-54

[2] = system: serum TNFα levels in LPS-injected mice; test: Inhibition of serum TNFα levels in LPS-injected mice (Mouse/TNFα ED50); format: in vivo; conditions: Mus musculus, stereoisomer comparison table; read-out: Mouse/TNFα ED50
Experimental: In order to assess the ability of a compound to reduce serum TNFα levels in mammals, the following protocol was employed. […] Accordingly, in vivo efficacy of a PDE4 reducing compound was shown by dosing with compound and measuring reduction of serum TNFα levels in LPS-injected mice. Female C3H mice, 20-25 gm body weight, were fasted overnight and dosed intraperitoneally with test compound in appropriate vehicle 60 minutes before LPS injection. Five μg of LPS was then injected intraperitoneally into the mice. Ninety minutes after LPS injection, mice were bled from the heart. Blood was allowed to clot overnight at 4° C. Samples were centrifuged for 10 minutes in a microcentrifuge and the serum removed and stored at −20° C. until analysis. Serum levels of TNFα were subsequently measured using a commercially available ELISA kit (Genzyme) following the protocol enclosed in the kit. The percent of inhibition of serum TNFα levels caused by the compound was determined relative to serum TNFα levels in control mice receiving vehicle alone. […]

mouse = test: Subjective assessment of mouse immobility (CNS side effects); format: in vivo; conditions: subjective assessment of mouse immobility, i.p. 1, 10 and 100 mg/kg, 60 minutes
PDE5 = molecular target: T8, PDE5 (Homo sapiens, UniProt O76074); test: Inhibition of PDE5; format: biochemical
T8 construct: made in house; host or cells: Saccharomyces cerevisiae BJ2-54

T5 sequence (Q07343 whole entry): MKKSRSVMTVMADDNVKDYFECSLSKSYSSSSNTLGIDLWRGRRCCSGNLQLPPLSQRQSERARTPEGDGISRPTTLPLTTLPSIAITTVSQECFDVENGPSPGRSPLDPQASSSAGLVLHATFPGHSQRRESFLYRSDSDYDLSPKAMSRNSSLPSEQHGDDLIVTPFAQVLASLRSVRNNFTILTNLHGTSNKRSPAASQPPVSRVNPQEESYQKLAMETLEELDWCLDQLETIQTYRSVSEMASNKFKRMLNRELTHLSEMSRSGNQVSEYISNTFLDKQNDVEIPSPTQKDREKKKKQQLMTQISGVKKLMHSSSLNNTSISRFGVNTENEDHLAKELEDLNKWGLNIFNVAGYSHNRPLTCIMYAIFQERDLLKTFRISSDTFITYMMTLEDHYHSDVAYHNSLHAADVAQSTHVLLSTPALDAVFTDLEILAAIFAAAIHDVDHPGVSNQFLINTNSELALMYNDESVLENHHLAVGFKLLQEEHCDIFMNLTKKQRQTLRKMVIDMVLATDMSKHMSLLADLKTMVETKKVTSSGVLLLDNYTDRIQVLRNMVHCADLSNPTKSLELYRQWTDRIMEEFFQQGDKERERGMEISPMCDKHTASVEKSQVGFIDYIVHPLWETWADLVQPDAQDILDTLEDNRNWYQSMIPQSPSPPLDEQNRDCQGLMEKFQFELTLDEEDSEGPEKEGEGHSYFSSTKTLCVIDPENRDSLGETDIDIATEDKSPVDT
T6 sequence (Q14432 whole entry): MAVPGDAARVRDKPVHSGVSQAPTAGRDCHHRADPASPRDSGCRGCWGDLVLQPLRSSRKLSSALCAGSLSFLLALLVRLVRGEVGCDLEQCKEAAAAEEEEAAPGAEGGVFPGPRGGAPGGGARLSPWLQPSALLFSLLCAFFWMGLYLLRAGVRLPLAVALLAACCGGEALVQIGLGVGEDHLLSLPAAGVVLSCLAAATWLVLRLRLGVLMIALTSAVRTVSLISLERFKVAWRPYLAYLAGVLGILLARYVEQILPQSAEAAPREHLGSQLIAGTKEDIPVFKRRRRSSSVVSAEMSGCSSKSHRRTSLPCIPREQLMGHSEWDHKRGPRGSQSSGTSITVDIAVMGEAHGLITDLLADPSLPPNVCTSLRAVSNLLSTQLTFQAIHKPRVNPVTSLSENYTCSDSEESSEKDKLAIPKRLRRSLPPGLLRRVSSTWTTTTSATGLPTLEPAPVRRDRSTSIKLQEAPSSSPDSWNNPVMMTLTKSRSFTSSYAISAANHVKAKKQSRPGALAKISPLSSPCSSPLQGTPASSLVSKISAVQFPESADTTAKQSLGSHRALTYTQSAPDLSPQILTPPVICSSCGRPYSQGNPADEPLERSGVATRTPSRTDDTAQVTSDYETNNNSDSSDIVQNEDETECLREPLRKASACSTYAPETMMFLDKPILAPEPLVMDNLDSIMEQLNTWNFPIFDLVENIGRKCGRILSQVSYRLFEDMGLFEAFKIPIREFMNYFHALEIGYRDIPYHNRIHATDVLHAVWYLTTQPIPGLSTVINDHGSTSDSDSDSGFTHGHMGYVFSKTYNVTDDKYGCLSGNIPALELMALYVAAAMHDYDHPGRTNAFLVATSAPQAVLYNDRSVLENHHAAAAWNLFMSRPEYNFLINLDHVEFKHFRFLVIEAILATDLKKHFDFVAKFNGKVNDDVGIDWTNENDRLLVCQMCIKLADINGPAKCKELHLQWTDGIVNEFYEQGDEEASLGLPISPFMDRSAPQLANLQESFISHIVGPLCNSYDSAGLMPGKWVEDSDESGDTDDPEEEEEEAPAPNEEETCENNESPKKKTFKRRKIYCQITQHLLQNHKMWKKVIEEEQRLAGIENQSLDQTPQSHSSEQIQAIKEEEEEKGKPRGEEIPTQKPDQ
T3 sequence (O00408 whole entry): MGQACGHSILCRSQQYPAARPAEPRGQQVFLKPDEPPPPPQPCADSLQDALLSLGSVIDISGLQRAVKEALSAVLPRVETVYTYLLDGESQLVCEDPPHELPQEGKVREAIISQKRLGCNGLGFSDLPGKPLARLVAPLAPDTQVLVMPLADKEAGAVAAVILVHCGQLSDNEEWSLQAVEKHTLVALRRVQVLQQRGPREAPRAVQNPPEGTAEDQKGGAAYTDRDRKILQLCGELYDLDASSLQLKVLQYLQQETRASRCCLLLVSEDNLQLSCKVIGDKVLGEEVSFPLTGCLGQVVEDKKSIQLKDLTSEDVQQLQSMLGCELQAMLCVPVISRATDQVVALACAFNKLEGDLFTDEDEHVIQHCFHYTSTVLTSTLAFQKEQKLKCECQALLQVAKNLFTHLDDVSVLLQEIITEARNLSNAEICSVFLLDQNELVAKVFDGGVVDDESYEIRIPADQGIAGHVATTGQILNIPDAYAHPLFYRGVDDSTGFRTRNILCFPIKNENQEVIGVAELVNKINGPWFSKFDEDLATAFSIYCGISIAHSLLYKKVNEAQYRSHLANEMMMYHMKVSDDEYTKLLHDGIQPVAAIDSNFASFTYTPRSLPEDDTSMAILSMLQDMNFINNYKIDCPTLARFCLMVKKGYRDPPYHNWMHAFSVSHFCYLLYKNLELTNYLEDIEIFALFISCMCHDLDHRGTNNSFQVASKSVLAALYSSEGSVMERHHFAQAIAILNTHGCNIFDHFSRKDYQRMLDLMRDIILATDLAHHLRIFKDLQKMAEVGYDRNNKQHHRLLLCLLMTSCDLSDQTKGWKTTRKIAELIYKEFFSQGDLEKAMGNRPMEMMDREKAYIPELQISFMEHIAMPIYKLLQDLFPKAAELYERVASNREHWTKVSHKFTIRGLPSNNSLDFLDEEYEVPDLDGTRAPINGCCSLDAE
T1 sequence (Q13946 whole entry): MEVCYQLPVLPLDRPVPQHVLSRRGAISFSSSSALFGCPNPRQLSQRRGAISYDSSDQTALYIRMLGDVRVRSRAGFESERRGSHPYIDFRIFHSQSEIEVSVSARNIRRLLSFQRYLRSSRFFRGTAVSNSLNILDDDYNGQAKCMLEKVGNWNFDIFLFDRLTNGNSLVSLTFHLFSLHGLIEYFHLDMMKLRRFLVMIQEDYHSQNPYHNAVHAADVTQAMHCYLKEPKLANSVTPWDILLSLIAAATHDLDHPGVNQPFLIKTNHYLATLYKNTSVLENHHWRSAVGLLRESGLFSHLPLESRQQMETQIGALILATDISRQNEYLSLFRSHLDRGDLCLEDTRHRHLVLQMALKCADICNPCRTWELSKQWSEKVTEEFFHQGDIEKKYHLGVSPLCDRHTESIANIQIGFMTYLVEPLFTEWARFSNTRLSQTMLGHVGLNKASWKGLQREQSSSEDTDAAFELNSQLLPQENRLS

ED50, effective dose that decreases spontaneous mobility 50% of control (Balb/c mice): 9.8 mg/kg
Structure (SMILES): COc1ccc([C@@H]2CN(C(=O)CNC(=O)OCc3ccccc3)C[C@@]2(C)[C@@H](C)O)cc1OC1Cc2ccccc2C1 [Example 29, N-(2-[3-((1R)-1-Hydroxyethyl)(3S,4S)-4-(3-indan-2-yloxy-4-methoxyphenyl)-3-methylpyrrolidinyl]-2-oxoethyl}(phenylmethoxy)carboxamide]

Structure (SMILES): COC(=O)N1C[C@@H](c2ccc(OC)c(OC3CCCC3)c2)[C@](C)([C@@H](C)O)C1 [(C)]
IC50 (PDE7): 36 µM | IC50 (PDE1A): 80 µM | IC50 (PDE2): 450 µM | IC50 (PDE1C): 12 µM | IC50 (human recombinant PDE4B): 0.015 µM | EC50 [1]: 0.0716 µM | IC50 (PDE3A): 40 µM | IC50 (recombinant human PDE4; human recombinant PDE4): 0.014 µM | IC50 (recombinant human PDE4; stereoisomer comparison table): 0.014 µM | Number of Emetic Events: Retches (ferret; intravenous 1.0 mg/kg): 0 | Number of Emetic Events: Total (ferret; intravenous 1.0 mg/kg): 0 | Number of Emetic Events: Vomits (ferret; intravenous 1.0 mg/kg): 0 | Responders (ferret; intravenous 1.0 mg/kg): 0/4 | Number of Emetic Events: Retches (ferret; intravenous 2.5 mg/kg): 0 | Number of Emetic Events: Total (ferret; intravenous 2.5 mg/kg): 0 | Number of Emetic Events: Vomits (ferret; intravenous 2.5 mg/kg): 0 | Responders (ferret; intravenous 2.5 mg/kg): 0/4 | Number of Emetic Events: Retches (ferret; intravenous 5.0 mg/kg): 10 | Number of Emetic Events: Total (ferret; intravenous 5.0 mg/kg): 10 | Number of Emetic Events: Vomits (ferret; intravenous 5.0 mg/kg): 0 | Responders (ferret; intravenous 5.0 mg/kg): 2/4 | Number of Emetic Events: Retches (ferret; intravenous 10.0 mg/kg): 27 | Number of Emetic Events: Total (ferret; intravenous 10.0 mg/kg): 31 | Number of Emetic Events: Vomits (ferret; intravenous 10.0 mg/kg): 4 | Responders (ferret; intravenous 10.0 mg/kg): 4/4 | distress after intravenous dosing (ferret; intravenous 10 mg/kg body weight): none displayed the distress | Number of Emetic Events: Retches (ferret; oral 2.5 mg/kg): 0 | Number of Emetic Events: Total (ferret; oral 2.5 mg/kg): 0 | Number of Emetic Events: Vomits (ferret; oral 2.5 mg/kg): 0 | Responders (ferret; oral 2.5 mg/kg): 0/4 | Number of Emetic Events: Retches (ferret; oral 10.0 mg/kg): 14 | Number of Emetic Events: Total (ferret; oral 10.0 mg/kg): 22 | Number of Emetic Events: Vomits (ferret; oral 10.0 mg/kg): 8 | Responders (ferret; oral 10.0 mg/kg): 2/4 | Number of Emetic Events: Retches (ferret; oral 17.0 mg/kg): 17 | Number of Emetic Events: Total (ferret; oral 17.0 mg/kg): 18 | Number of Emetic Events: Vomits (ferret; oral 17.0 mg/kg): 1 | Responders (ferret; oral 17.0 mg/kg): 2/3 | Number of Emetic Events: Retches (ferret; oral 25.0 mg/kg): 61 | Number of Emetic Events: Total (ferret; oral 25.0 mg/kg): 73 | Number of Emetic Events: Vomits (ferret; oral 25.0 mg/kg): 12 | Responders (ferret; oral 25.0 mg/kg): 4/4 | IC50 (PDE1B): 100 µM | ED50 [2]: 5 mg/kg | CNS Side Effects (mouse): No effect | IC50 (PDE5): 270 µM
